Experiments:
HEcR with αRXR = assay: Native HEcR reporter gene expression in HEK293 cells co-transfected with αRXR; format: cell-based, Heliothis virescens; conditions: αRXR co-transfected along with effector and reporter
Description: A third effector construct was made with the 5′ end sequences of pSK16.1 by PCR. The PCR approach involved PCR amplifying the 5′ end sequences using a 5′ oligonucleotide containing a HindIII restriction cloning site, the Kozak consensus sequence followed by nucleotide sequence encoding for a Methionine start and two Arginines to be added to the 5′ end of the amplified fragment: (16H3K 5′ […] 3′; SEQ ID NO: 28), the 3′ oligonucleotide used was HecrNdeI. The resulting fragment was restriction enzyme digested, gel purified and subcloned with an NdeI/NotI 19R fragment into pcDNA3 NdeI/NotI vector. The plasmid was named pcDNA3H3 KHEcR.
The reporter plasmid to be co-transfected with the expression vector contained 4 copies of the Hsp27 ecdysone response element (Riddihough and Pelham, 1987) fused to β-globin promoter and the β-Galactosidase gene. The tandem repeats of the ecdysone response element were synthesised as two complementary oligonucleotides which when annealed produced a double stranded DNA molecule flanked by an SpeI site at the 5′ end and a ClaI site at the 3′ end:
The resulting 135 bp DNA fragment was ligated to the vector pSWBGAL SpeI/ClaI resulting in pSWREcR4 (FIG. 8). The co-transfection of the two plasmids should result in B-galactosidase activity in the presence of ligand. […]

[1] = target: T1, glucocorticoid/Heliothis ecdysone chimeric receptor (UniProt O18473+P04150); assay: Maize protoplast GUS reporter assay with pMF6GRHEcR and p221.9GRE6; format: cell-based, Heliothis virescens; design: expressed in transfected cells; host or cells: maize protoplasts (A5); tobacco mesophyll protoplasts (A6); CHO-K1 (A7); HEK293 (A8); stably transformed tobacco plants (A9); conditions: maize protoplasts
T1 sequence (P04150+O18473 with tags, fused parts or gaps): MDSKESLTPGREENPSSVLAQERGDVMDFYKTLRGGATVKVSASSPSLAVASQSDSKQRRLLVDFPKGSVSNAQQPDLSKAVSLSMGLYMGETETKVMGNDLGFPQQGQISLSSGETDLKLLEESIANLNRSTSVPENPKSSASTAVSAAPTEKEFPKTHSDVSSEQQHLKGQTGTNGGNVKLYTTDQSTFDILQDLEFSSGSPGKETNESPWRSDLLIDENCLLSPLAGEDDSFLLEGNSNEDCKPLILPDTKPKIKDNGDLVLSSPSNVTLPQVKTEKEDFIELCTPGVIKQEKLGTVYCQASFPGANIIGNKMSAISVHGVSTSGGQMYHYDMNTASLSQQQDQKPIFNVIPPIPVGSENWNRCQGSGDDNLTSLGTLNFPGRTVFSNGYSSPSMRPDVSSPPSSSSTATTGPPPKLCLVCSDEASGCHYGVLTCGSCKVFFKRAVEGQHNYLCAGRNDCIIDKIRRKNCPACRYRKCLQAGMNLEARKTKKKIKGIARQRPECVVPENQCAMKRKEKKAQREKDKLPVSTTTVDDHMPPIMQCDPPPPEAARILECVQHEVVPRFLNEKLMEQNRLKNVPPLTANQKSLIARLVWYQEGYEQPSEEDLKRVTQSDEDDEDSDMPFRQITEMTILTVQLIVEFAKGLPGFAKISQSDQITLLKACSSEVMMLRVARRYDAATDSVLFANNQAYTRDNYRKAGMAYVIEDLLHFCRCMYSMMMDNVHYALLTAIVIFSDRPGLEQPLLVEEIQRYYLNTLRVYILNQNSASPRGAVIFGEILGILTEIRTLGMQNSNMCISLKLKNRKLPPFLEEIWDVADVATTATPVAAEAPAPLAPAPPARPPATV
Description: Protoplasts were isolated from a maize suspension culture derived from BE70×A188 embryogenic callus material, which was maintained by subculturing twice weekly in MS0.5mod. (MS medium supplemented with 3% sucrose, 690 mg/l proline, 1 g/l myo-inositol, 0.2 g/l casein acid hydrolysate, 0.5 mg/l 2,4-D, pH 5.6). Cells from suspensions two days post subculture were digested in enzyme mixture (2.0% Cellulase RS, 0.2% Pectolyase Y23, 0.5 M Mannitol, 5 mM CaCl2.2H2O, 0.5% MES, pH 5.6, ˜660 mmol/kg) using ˜10 ml/g cells, incubating at 25° C., dim light, rotating gently for ˜2 hours. The digestion mixture was sieved sequentially through 250 μm and 38 μm sieves, and the filtrate centrifuged at 700 rpm for 3.5 minutes, discarding the supernatant. The protoplasts were resuspended in wash buffer (0.358 M KCl, 1.0 mM NH4NO3, 5.0 mM CaCl2.2H2O, 0.5 mM KH2PO4, pH 4.8, ˜670 mmol/kg) and pelleted as before. This washing step was repeated. The pellet was resuspended in wash buffer and the protoplasts were counted. Transformation was achieved using a Polyethylene glycol method based on Negrutiu et al. Protoplasts were resuspended at 2×10^6/ml in MaMg medium (0.4 M Mannitol, 15 mM MgCl2, 0.1% MES, pH 5.6, ˜450 mmol/kg) aliquotting 0.5 ml/treatment (i.e. 1×10^6 protoplasts/treatment). Samples were heat shocked at 45° C. for 5 minutes then cooled to room temperature. […]

Structure (SMILES)	induction of reporter activity compared to the untreated cells (HEcR with αRXR) [fold]	response of reporter ([1]; 100 μM)	chemical induced reporter gene activity ([1]; concentration not printed (FIG. 20))
CC(C)CC[C@@H](O)[C@](C)(O)[C@H]1CC[C@@]2(O)C3=CC(=O)[C@]4(O)C[C@@H](O)[C@@H](O)C[C@]4(C)[C@H]3[C@H](O)C[C@]12C [Muristerone A]	9	no response	
CCc1ccc(C(=O)NN(C(=O)c2cc(C)cc(C)c2)C(C)(C)C)cc1 [RH5992, 3,5-dimethylbenzoic acid 1-1(1,1-dimethylethyl)-2(4-ethylbenzoyl)hydrazide]	9		significant chemical induced reporter gene activity

Source: US7183061B2, “Method of expressing Heliothis ecdysone receptor fusion protein” (Syngenta Limited, priority 1996, dated 2007)
